Assay [1] deals with NCI-H929 MM cells. Kind of assay: NCI-H929 bone lysis SCID mouse model, MOR202 and BOR (MicroCT). It counts as in vivo, SCID mice. From the text:
63 SCID mice were inoculated on Day (−7) intra-tibially with 2.5×10^6 NCI-H929 MM cells in order to induce bone lysis. Bortezomib (Groups A and AB) and Vehicle Control (Group C) treatments started on Day (−1). MOR202 treatments (Groups B and AB) started on Day 0. Treatment continued for 6 weeks.
MicroCT Scan was used to assess bone lysis and included a 3-dimensional analysis comprising Total Bone Volume (TBV), Trabecular Bone Volume (Tb.BV), Trabecular Pattern Factor (Tb.Pf) and Structure Model Index (SMI). Table 10 above defines each of these parameters.

In assay [2] the test system is NCI-H929 cells. Briefly: ADCC with human PBMCs, flow cytometry (CalceinAM/PI). The note with it: NCI-H929 target cells treated with bortezomib before MOR202 15 μg/ml; FIG. 9.
Description: PBMC's were isolated by density gradient centrifugation of freshly isolated human blood. Isolated blood from different donors were layered on a defined volume of Biocoll (Biochrome AG; CAT No.:L6115; LOT No.:1050T) in a Falcon tube and centrifuged at 380 g. The PBMCs were isolated and supplemented with RPMI medium.
Cell suspensions were further incubated for 4 h at 37° C. To detect dead AMO-1 cells, cell suspensions were challenged with propidium iodide (PI) and subsequently analyzed in flow cytometry. Target cells were separated via gating of CalceinAM positive cell populations, and cells killed via ADCC were quantified.
Single and combination doses of 5 μM LEN and 15 μg/ml of MOR03207 and 0.2 or 0.07 μg/ml MOR202 were used.
Single and combination doses of 5 μM LEN and 15 μg/ml of MOR03207 and 0.2* or 0.07 μg/m MOR202 were used.
Assay [3] deals with LP-1 cells. Kind of assay: Cell proliferation, XTT-based assay. The note with it: Homo sapiens, bortezomib alone, read-out: IC50 (inhibition of cell proliferation). (Formazan colour is commonly taken as a measure of viable cells.)
Description: (§1) Increasing amounts of Bortezomib (Velcade®, Lot: No.: #9AZSY00) were applied to AMO-1, LP-1, NCI-H929 and RPMI-8226 cells and incubated for 24 h, 48 h and 72 h. After incubation, period plates were analyzed for cell proliferation in a quantitative colorimietric XTT-based assay using the cell proliferation kit II (ROCHE, Cell Proliferation Kit II, Cat. No.: 11465015001). For subsequent measurement, plates were subjected to Tecan Genios Reader and absorbance at 492 nm was detected.
For assay [4], the system named is AMO-1 cells. Briefly: Cell proliferation, XTT-based assay. Also on record: species or system human. To be noted: Homo sapiens, AMO1, bortezomib alone, XTT, read-out: IC50 (inhibition of cell proliferation).
Description: (§2) Cells were collected and distributed in 96-well plates with 5000 cells per well.
(§3) After incubation, plates were analyzed for cell proliferation in a quantitative colorimietric XTT-based assay using the cell proliferation kit II (ROCHE, Cell Proliferation Kit II, Cat. No.: 11465015001). For subsequent measurement plates were subjected to Tecan Genios Reader and absorbance at 492 nm was detected.
as §1
Assay [5] concerns RPMI-8226 cells. Briefly: Cell proliferation, XTT-based assay. The note with it: Homo sapiens, bortezomib alone, read-out: IC50 (inhibition of cell proliferation).
Description: as §1
Assay [6] concerns NCI-H929 cells. Kind of assay: Cell proliferation, XTT-based assay. To be noted: Homo sapiens, NCI-H929, read-out: IC50 (inhibition of cell proliferation).
Description: as §2, §3, §1
Assay [7] concerns LP-1 cells. Briefly: ADCC with human PBMCs, flow cytometry (CalceinAM/PI). The note with it: LP-1 target cells treated with bortezomib before MOR202 15 μg/ml; FIG. 10. It counts as cell-based. How it is done:
Using the methods described in Example 4, the ADCC effect of combining bortezomib and MOR202 was analyzed. Here, the target cells were treated with bortezomib prior to the treatment with MOR202. Both target cells. NCI-H929 and LP-1 cells were tested.

Assay [8] relates to RAMOS cells. The note with it: BOR 0.6 mg/kg i.p., MOR202 1 mg/kg i.v.
Description: Fifty-five female SCID mice were pre-treated with Cyclophosphamide (75 mg/kg, i.p., twice daily) for two days prior to RAMOS cell inoculation (Day −5 and −4). On the day of inoculation (Day −3), all fifty-five mice were inoculated with 1×10^6 RAMOS cells each (in 100 μL) intravenously into the tail vein. Forty-eight of the mice were randomised by body weight into six groups of eight.
The study continued for 98 days and the measured endpoint was survival.
Where [9] appears, read: Bortezomib 0.6 mg/kg i.p. twice per week, MOR202 3 mg/kg i.p. three times per week, 6 weeks, lower = less bone lysis.
[10] abbreviates: group average of 10 mice, Bortezomib 0.6 mg/kg i.p., MOR202 3 mg/kg i.p., 6 weeks.

The text below walks through data of patent US9289490B2, “Combinations and uses thereof” (MORPHOSYS AG, priority 2010, dated 2016).

Values joined by “and” are separate entries in the source; they are usually repeats but may differ in a detail not shown here. Identical values can stand only once.

As to `CC(C)C[C@H](NC(=O)[C@H](Cc1ccccc1)NC(=O)c1cnccn1)B(O)O` [bortezomib], the “Structure Model Index (SMI), individual mouse” value in assay [1] (setting [9]) was 2.443 and 2.374 and 2.156 and 2.262 and 2.700 and 2.981 and 3.007 and 2.553 and 2.337 and 2.273. Besides, the “Trabecular Pattern Factor (Tb · Pf), individual mouse” value in assay [1] (setting [9]) is 25.893 mm^−1 and 26.044 mm^−1 and 16.877 mm^−1 and 23.179 mm^−1 and 32.463 mm^−1 and 33.152 mm^−1 and 34.609 mm^−1 and 31.813 mm^−1 and 27.147 mm^−1 and 23.582 mm^−1. Also, the “Structure Model Index (SMI), Average” value in assay [1] (setting [10]) was 2.509. The “Trabecular Pattern Factor (Tb · Pf), Average” value in assay [1] (setting [10]) is given as 27.476 mm^−1. Further, the “Reduction of bone lysis compared to vehicle control” value in assay [1] (non-inoculated tibia = 0%, vehicle = 100% bone lysis, MOR202 alone 12 mg/kg, BOR alone 0.6 mg/kg, combination 3 mg/kg MOR202 and 0.6 mg/kg BOR) is 40%. For the same compound, the “Enhancement of MOR202 ADCC activity by bortezomib (in words)” value in assay [2] and in assay [7] was “enhancement in MOR202 activity” in each case. The IC50 in assay [3] was found to be 6.1 nM; in assay [4], 3.9 nM; in assay [5], 9 nM; in assay [6], 3.3 nM. The “Number of mice alive at study termination (day 98)” value in assay [8] is recorded as 0/8. Also, in assay [8] (study 98 days), the “Day of death (post-inoculation) Mean” value is 19.1 days. Moreover, the “Day of death (post-inoculation) Median” value in assay [8] (study 98 days) was 19 days. Further, the “% ILS (based on median death day)” value in assay [8] (vs vehicle control) is −7%.
